Source: paper PMC7125190, “Native/citrullinated LL37-specific T-cells help autoantibody production in Systemic Lupus Erythematosus” (Scientific Reports, 2020)
Non-standard residues stand in square brackets, D forms with d. Residues, ends and D or L forms follow the SMILES beside them. No end group written: not given here. Cit = NC(=O)NCCC[C@H](N)C(=O)O

Key:
[1] = tested on: SLE/CLE CD4+ T-cell clones; experiment: T-cell clone reactivity (BrdU, HLA-matched B-LCLs pulsed with peptide); type: cell-based, human; settings: clones from one SLE and one CLE patient
Description: PBMCs were purified, from EDTA-treated blood, on Ficoll-Hypaque (Pharmacia Fine Chemicals, Uppsala, Sweden) were incubated (10^5 cells/well) in 96-well-flat-bottom-microplates (BD) in T cell-medium (RPMI 1640, 10% heat-inactivated human serum, HS, Gibco), 2 mM L-glutamine, 10 U/mL penicillin, and 100 μg/mL streptomycin), with/without peptides. We performed assays on fresh cells, within 1-to-3 hours from collection, or on PBMCs frozen in 90% FCS-10%DMSO, whose viability we assessed by Trypan blue exclusion, at inverted microscope. Recovery of live cells was between 65 and 85 % of the frozen number. At day3 and 5, BrdU was added (1 μg/mL). BrdU-incorporation was detected by APC-labeled anti-BrdU antibody (BD Pharmingen), after surface staining by flow cytometry. Internal control for T-cell viability and proliferation was PHA treatment (2 μg/mL). SI for proliferation was calculated by dividing percent of BrdU-staining in the presence of each peptide used to stimulate cells by percent of BrdU-staining in the absence of peptide stimulation. SI for proliferation was considered positive when>3. This cut-off was obtained by calculating the mean+2DS [1.5 + 2 (0.6)] (of the stimulation indexes calculated as above) of the proliferation of HD. […]
Assays were repeated twice with each patient. […] Ror-ɣt and Bcl-6 were measured by intracellular staining and flow cytometry, after 48 hours culture with LL37 or control antigen, and were analyzed on CD38highCD4 T-cells. […]
PBMCs were stimulated (2x10^6 cells/mL) with LL37 for 7 days and re-stimulated (10 days) with LL37-pulsed (10 µg/mL) autologous-ɣ-irradiated-(30Gy)-PBMCs in T-cell medium in the presence of human/recombinant (hr)IL-2 (Boehringer-Mannheim, Indian, USA). T cell lines-specificity was analyzed by using peptide-pulsed (0.1-10 µg/mL) autologous-irradiated PBMCs (30Gy) or lymphoblastoid-cell-lines (B-LCLs) (150Gy, 33). […]
analyzed by flow-cytometry (after staining by BrdU-detection kit, BD Pharmingen). […] Clones reactivity and HLA-restriction were analyzed using HLA-matched-homozigous B-LCLs, pulsed with […]

[2] = tested on: serum antibodies (anti-native LL37/anti-cit-LL37); experiment: ELISA for autoantibody detection in sera; type: binding, human; settings: for Antibody response to control peptides in SLE: SLE sera, ELISA OD
Description: Anti-native/cit-LL37, other antigen antibodies (anti-DNA and anti-RNA), and total anti-human IgG were measured by ELISA as described. Briefly, 96-well flat-bottom plates (Non-Binding surface polystyrene, Corning, USA) are coated with 2 μg/mL of native LL37/cit-LL37 or control proteins or human DNA or human RNA[9] or anti-human IgG antibody (Sigma) in carbonate buffer (0.1 M NaHCHO3, pH 9) for 2 hours (or over night) and washed four times with PBS 0.1% Tween-20. This washing buffer was used for washing at all steps. The blocking buffer containing 2% bovine serum albumin (BSA, Sigma) in PBS was used for at least 1 hour (or over night) to saturate unspecific binding sites. After washing, sera were diluted at various concentrations (usually 1:100 or 1:200) in PBS 2% BSA (cell culture supernatants were diluted 1:2, 1:4 or 1:10) followed by 1 hour incubation with a horseradish peroxidase–conjugated (HRP) goat anti-human IgG (Sigma-Aldrich), diluted 1:10,000 in PBS. The color was developed for 5 minutes with 3,3’,5,5’-tetramethylbenzidine (TMB) substrate (Sigma-Aldrich). The reaction was stopped by adding 50 μl of 2 N H2SO4, and absorbance determined at 450 nm with a reference wavelength of 540 nm. Anti-dsDNA in sera of lupus patients were detected by the standard clinical test Kallestad Crithidia luciliae Complete Kits for detection and semi-quantitation of autoantibodies to native DNA (nDNA) antigens by indirect fluorescence antibody (IFA) procedure. ELISA for detection of anti-tetanus antibodies (anti-TT) was from Abnova (Taiwan).

HLA-DR15 (DRB1*1501) = molecular target: T1, HLA-DR15 (DRB1*1501) (Homo sapiens, UniProt P01903+P01911); experiment: HLA-DR folding assay (LOCI/AlphaScreen) peptide binding; settings: axis "Peptide (nM)", LOCI, 48 h at 18 °C, L243 acceptor beads, five-fold titrations, one representative experiment of two shown, read-out: average Ko
T1 construct: made in house; host or cells: E. coli
Description: (§1) Human recombinant HLADRA1*01:01, HLA-DRB1*01:01, and HLA-DRB1*15:01 were expressed in E. coli and purified in a series of liquid chromatography based steps[71].
(§2) We performed peptide-MHC binding assays by two different protocols by ImmunAware, Denmark and Benaroya Institute (USA). In the first protocol, binding was measured using a Luminescent Oxygen Channelling Immunoassay (LOCI), marketed by Perkin Elmer as AlphaScreen[72]. This is a nonradioactive bead-based homogenous proximity assay, where the donor beads containing a photosensitizer compound upon excitation with light at a 680 nm wavelength, converts ambient oxygen to energy-rich, short-lived singlet oxygen; that is transferred to a acceptor beads in close proximity only. The acceptor beads can respond to singlet oxygen with a luminescence/ fluorescence cascade leading to an amplified signal in the 520–620 nm range. As one tag binding to the donor beads: a biotin group engineered unto the HLA β chain. As the other tag binding to the acceptor beads: conformation-dependent HLA class II specific antibody (L243). Thus, only when a fully folded complex is present will the donor and acceptor beads come in sufficient close proximity and give a measurable signal. Biotinylated recombinant HLA class II molecules were diluted from an 8 M urea buffer into a folding buffer (PBS, 20% glycerol, Protease inhibitor mix) with peptide concentrations ranging from 0.13 nM to 10,000 nM. The analysed peptides were tested in 5-to-8 five-fold concentration titrations spanning from 20 μM to 0.3 nM. The reaction mixtures were incubated for 48 h at 18 °C to allow for peptide-HLA complex formation reaching steady state. After incubation, 15 μL of the folding mixture was transferred to a 384-well Optiplate (PerkinElmer) followed by addition of 15 μL of a solution containing L243 acceptor beads and streptavidin donor beads (final concentration of beads was 5 μL/mL). The plates were incubated over night at 18 °C, and then measured in enVisionTM, Perkin Elmer. Assay signals measured in […] were plotted against the offered peptide concentrations, and analyzed by non-linear regression using GraphPad Prism. […]
(§3) Figure S7. […] (A,B) Binding of LL37-peptides to HLA-DR1 (DRB1*0101) and to HLA-DR15 (DRB1*1501) was evaluated by a HLA-DR folding assays and detected by Luminescent Oxygen Channelling Immunoassay (LOCI) described in MM. […] (C-F) Binding to DR16 (DRB1*1601), DRB5 (HLA-DRB5*0101), DR4 (HLA-DRB1*0401) and DR10 (DRB1*1001) was evaluated by peptide competitionassay as in MM, and evaluated fluorimetrically. […]

HLA-DR1 (DRB1*0101) = molecular target: T2, HLA-DR1 (DRB1*0101) (Homo sapiens, UniProt P01903+P01911, A100R/D57E/F55L/F60I/F76Y/I96L/L162R/M171V/P40L/Q125E/R42F/V115G/Y59C); experiment: as above; settings: axis "Peptide (nM)", LOCI, 48 h at 18 °C, L243 acceptor beads, five-fold titrations, one representative experiment of two shown, read-out: average Ko
T2 construct: made in house; host or cells: E. coli
Description: as §1, §2, §3

CD3+CD4+ T-cells = experiment: T-cell proliferation assay (BrdU incorporation of PBMC); type: cell-based, human; settings: SLE/CLE PBMC, day 6, BrdU
Description: PBMCs were purified, from EDTA-treated blood, on Ficoll-Hypaque (Pharmacia Fine Chemicals, Uppsala, Sweden) were incubated (10^5 cells/well) in 96-well-flat-bottom-microplates (BD) in T cell- […]
penicillin, and 100 μg/mL streptomycin), with/without peptides. We performed assays on fresh cells, within 1-to-3 hours from collection, or on PBMCs frozen in 90% FCS-10%DMSO, whose viability we assessed by Trypan blue exclusion, at inverted microscope.
At day3 and 5, BrdU was added (1 μg/mL). BrdU-incorporation was detected by APC-labeled anti-BrdU antibody (BD Pharmingen), after surface staining by flow cytometry. Internal control for T-cell viability and proliferation was PHA treatment (2 μg/mL). SI for proliferation was calculated by dividing percent of BrdU-staining in the presence of each peptide used to stimulate cells by percent of BrdU-staining in the absence of peptide stimulation. SI for proliferation was considered positive when>3. This cut-off was obtained by calculating the mean+2DS [1.5 + 2 (0.6)] (of the stimulation indexes calculated as above) of the proliferation of HD.
Basal % of proliferation was set using, as reference, an isotype matched antibody staining (APC- […]
Assays were repeated twice with each patient. In rare cases in which background proliferation exceed antigen-specific proliferation the assay was repeated three times. Concomitant phenotype analysis of LL37-responder T-cells included staining for CD4, CD8, CXCR5, PD1, ICOS, CCR6. […]

DNA = settings: cited from earlier work

Compound: CPKYVKQNTLKLATG [HA306–320, promiscuously presented peptide derived from the hemoagglutinin protein of Influenza A, reference compound]
- T-cell clone reactivity [1]: did not cross-react

Compound: SETR(cit)PVLNR(cit)LFDKIR(cit)QVIR(cit)KEFEKGIKEKSKR(cit)FFDGLL [cit-REV, citrullinated REV peptide, reference compound]
- RA sera with antibody reactivity ([2]; RA sera, 14 of 70): 20%
- Antibody response to control peptides in SLE [2]: negative

Compound: CC[C@H](C)[C@H](NC(=O)[C@H](CCCCN)NC(=O)[C@H](CCC(=O)O)NC(=O)[C@H](CCCCN)NC(=O)[C@H](CO)NC(=O)[C@H](CCCCN)NC(=O)[C@H](CCCNC(N)=O)NC(=O)[C@H](Cc1ccccc1)NC(=O)[C@H](Cc1ccccc1)NC(=O)[C@H](CC(=O)O)NC(=O)CNC(=O)[C@H](CC(C)C)NC(=O)[C@@H](N)CC(C)C)C(=O)NCC(=O)N[C@@H](CCCCN)C(=O)O [cit-P1] (H-LLGDFF[Cit]KSKEKIGK-OH)
- Kd (HLA-DR15 (DRB1*1501)): 3440 nM

Compound: LLGDFFRKSKEKIGK [P1]
- Kd (HLA-DR15 (DRB1*1501)): 700 nM

Compound: CC(C)C[C@H](NC(=O)[C@H](Cc1ccccc1)NC(=O)[C@H](CC(=O)O)NC(=O)[C@@H](N)CCCCN)C(=O)N[C@@H](CCCNC(N)=O)C(=O)N[C@@H](CC(N)=O)C(=O)N[C@@H](CC(C)C)C(=O)N[C@H](C(=O)N1CCC[C@H]1C(=O)N[C@@H](CCCNC(N)=O)C(=O)N[C@H](C(=O)N[C@@H](CCC(=O)O)C(=O)N[C@@H](CO)C(=O)O)[C@@H](C)O)C(C)C [cit-P7] (H-KDFL[Cit]NLVP[Cit]TES-OH)
- Kd (HLA-DR1 (DRB1*0101)): 305 nM

Compound: KDFLRNLVPRTES [P7]
- Kd (HLA-DR1 (DRB1*0101)): 60 nM

Compound: GIINTLQKYYCRVRGGRCAVLSCLPKEEQIGKCSTRGRKCCRRKK [HBD3, control unrelated AMP human β-defensin-3, reference compound]
- T-cell response to control or short peptides (CD3+CD4+ T-cells): not significant

Compound: SETRPVLNRLFDKIRQVIRKEFEKGIKEKSKRFFDGLL [REV, reference compound]
- T-cell response to control or short peptides (CD3+CD4+ T-cells): did not elicit T-cell responses
- Antibody response to control peptides in SLE [2]: negative
- DNA-binding activity (DNA): retains DNA-binding activity
